The assay concerns the target T1, human kinase Mps-1 (Homo sapiens, UniProt P33981).
T1 construct: N-terminally GST-tagged human full length recombinant Mps-1 kinase; GST (N); purchased Invitrogen, Karslruhe, Germany PV4071
T1 sequence (P33981 1-857): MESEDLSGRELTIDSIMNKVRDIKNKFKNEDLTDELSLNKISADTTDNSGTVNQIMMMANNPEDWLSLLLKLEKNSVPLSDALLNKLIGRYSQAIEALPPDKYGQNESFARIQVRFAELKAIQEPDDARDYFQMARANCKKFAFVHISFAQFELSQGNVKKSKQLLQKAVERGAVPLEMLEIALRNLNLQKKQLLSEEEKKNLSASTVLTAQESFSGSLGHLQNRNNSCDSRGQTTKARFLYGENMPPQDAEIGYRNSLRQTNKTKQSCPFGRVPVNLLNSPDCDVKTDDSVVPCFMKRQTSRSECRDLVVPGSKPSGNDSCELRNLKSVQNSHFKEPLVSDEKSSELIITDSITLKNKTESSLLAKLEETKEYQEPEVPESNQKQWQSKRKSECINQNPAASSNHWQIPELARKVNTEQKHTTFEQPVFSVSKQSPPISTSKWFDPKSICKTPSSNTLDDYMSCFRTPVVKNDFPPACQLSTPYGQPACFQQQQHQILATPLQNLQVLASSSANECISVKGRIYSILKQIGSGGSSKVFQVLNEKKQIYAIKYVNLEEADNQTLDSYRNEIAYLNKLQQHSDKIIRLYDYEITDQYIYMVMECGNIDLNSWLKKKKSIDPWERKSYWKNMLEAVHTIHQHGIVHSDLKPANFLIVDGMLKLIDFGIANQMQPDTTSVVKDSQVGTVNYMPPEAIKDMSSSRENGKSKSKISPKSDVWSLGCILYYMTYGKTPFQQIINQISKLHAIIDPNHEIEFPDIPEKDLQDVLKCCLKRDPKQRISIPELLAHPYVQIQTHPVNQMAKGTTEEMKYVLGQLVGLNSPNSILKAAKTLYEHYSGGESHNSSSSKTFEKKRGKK
The assay can be described thus: Mps-1 kinase assay (HTRF). It counts as biochemical. For orientation: TR-FRET usually uses a lanthanide donor and a delayed reading to cut background.

Data on 14 compounds can be found in patent US20130121994A1, “TRIAZOLOPYRIDINE DERIVATIVES” (BAYER INTELLECTUAL PROPERTY GMBH, priority 2009, published 2013).

By IC50 is commonly meant the concentration that inhibits the measured activity by half. As for `CC(C)(O)CNC(=O)c1cccc(-c2ccc3nc(Nc4ccccc4C#N)nn3c2)c1` [Example 11.062, 3-{2-[(2-cyanophenyl)amino][1,2,4]triazolo[1,5-a]pyridin-6-yl}-N-(2-hydroxy-2-methylpropyl)benzamide], the IC50 came out at 13.9 nM.
Turning to `N#Cc1ccccc1Nc1nc2ccc(-c3cccc(C(=O)NCC(F)(F)C(F)(F)F)c3F)cn2n1` [Example 11.063, 3-{2-[(2-cyanophenyl)amino][1,2,4]triazolo[1,5-a]pyridin-6-yl}-2-fluoro-N-(2,2,3,3,3-pentafluoropropyl)benzamide], the IC50 was found to be 17.3 nM.
Then `C[C@H](NC(=O)c1cccc(-c2ccc3nc(Nc4ccccc4C#N)nn3c2)c1)C(F)(F)F` [Example 11.064, 3-{2-[(2-cyanophenyl)amino][1,2,4]triazolo[1,5-a]pyridin-6-yl}-N-[(2S)-1,1,1-trifluoropropan-2-yl]benzamide], with 26.5 nM; and `CC(C)(C)NC(=O)c1cccc(-c2ccc3nc(Nc4ccccc4C#N)nn3c2)c1F` [Example 11.065, N-tert-butyl-3-{2-[(2-cyanophenyl)amino][1,2,4]triazolo[1,5-a]pyridin-6-yl}-2-fluorobenzamide], with 18.2 nM; and `CC(F)(F)CNC(=O)c1cccc(-c2ccc3nc(Nc4ccccc4C#N)nn3c2)c1F` [Example 11.066, 3-{2-[(2-cyanophenyl)amino][1,2,4]triazolo[1,5-a]pyridin-6-yl}-N-(2,2-difluoropropyl)-2-fluorobenzamide], with 26.7 nM.
For `N#Cc1ccccc1Nc1nc2ccc(-c3cccc(C(=O)NCCC(F)(F)F)c3F)cn2n1` [Example 11.067, 3-{2-[(2-cyanophenyl)amino][1,2,4]triazolo[1,5-a]pyridin-6-yl}-2-fluoro-N-(3,3,3-trifluoropropyl)benzamide], half-maximal inhibition (IC50) required 23.9 nM.
Take `COCCNC(=O)c1cccc(-c2ccc3nc(Nc4ccccc4C#N)nn3c2)c1` [Example 11.068, 3-{2-[(2-cyanophenyl)amino][1,2,4]triazolo[1,5-a]pyridin-6-yl}-N-(2-methoxyethyl)benzamide]: the IC50 was 24.7 nM.
Next, `N#Cc1ccccc1Nc1nc2ccc(-c3cccc(C(=O)NCC(F)F)c3F)cn2n1` [Example 11.069, 3-{2-[(2-cyanophenyl)amino][1,2,4]triazolo[1,5-a]pyridin-6-yl}-N-(2,2-difluoroethyl)-2-fluorobenzamide]: 34.2 nM.
Compound `N#Cc1ccccc1Nc1nc2ccc(-c3cccc(C(=O)NCCO)c3)cn2n1` [Example 11.070, 3-{2-[(2-cyanophenyl)amino][1,2,4]triazolo[1,5-a]pyridin-6-yl}-N-(2-hydroxyethyl)benzamide] displayed an IC50 of 29.7 nM.
Next, `C[C@H](O)CNC(=O)c1cccc(-c2ccc3nc(Nc4ccccc4C#N)nn3c2)c1` [Example 11.071, 3-{2-[(2-cyanophenyl)amino][1,2,4]triazolo[1,5-a]pyridin-6-yl}-N-[(2S)-2-hydroxypropyl]benzamide]: 36.9 nM; `N#Cc1ccccc1Nc1nc2ccc(-c3cccc(C(=O)NCCF)c3F)cn2n1` [Example 11.072, 3-{2-[(2-cyanophenyl)amino][1,2,4]triazolo[1,5-a]pyridin-6-yl}-2-fluoro-N-(2-fluoroethyl)benzamide]: 42.2 nM; `N#Cc1ccccc1Nc1nc2ccc(-c3ccc(F)c(C(=O)O)c3)cn2n1` [Example 11.073, 5-{2-[(2-cyanophenyl)amino][1,2,4]triazolo[1,5-a]pyridin-6-yl}-2-fluorobenzoic acid]: 43.5 nM.
Regarding `N#Cc1ccccc1Nc1nc2ccc(-c3cc(F)cc(C(=O)O)c3)cn2n1` [Example 11.074, 3-{2-[(2-cyanophenyl)amino][1,2,4]triazolo[1,5-a]pyridin-6-yl}-5-fluorobenzoic acid], the IC50 was 170 nM.
In the case of `CCOC(=O)c1cc(F)cc(-c2ccc3nc(Nc4ccccc4C#N)nn3c2)c1` [Example 11.075, ethyl 3-{2-[(2-cyanophenyl)amino][1,2,4]triazolo[1,5-a]pyridin-6-yl}-5-fluorobenzoate], the IC50 stood at 1980 nM.
